According to patent US7737143B2, “Substituted pyrazines as kinase inhibitors” (YM Biosciences Australia Pty Ltd, priority 2003, dated 2010):

Experiments:
Assay type in all cases: biochemical
human JAK2 = target: T1, human JAK2 (Homo sapiens, UniProt O60674); assay: JAK kinase assay (ELISA or Alphascreen), Jak2; details: standard conditions, read-out: Jak2 inhibition of enzyme activity
T1 construct: The kinase domain of human JAK2 was amplified from U937mRNA; His tag (pFastBac HTc vector; nickel chelate purification) (N); made in house; host or cells: baculovirus; Sf9 for virus, High Five insect cells for production
Source text: The kinase domain of human JAK2 was amplified from U937mRNA using the polymerase chain reaction with the following primers: […]
JAK2 PCR products were cloned into the pFastBac HTc expression vector (Gibco) via the Sal I and Not I sites. The JAK2 plasmid was then transformed into competent DHL10Bac cells (Gibco), and the recombinant baculovirus produced prepared for transfection into Sf9 insect cells.
(§1) Baculovirus preparations from each of the JAK family members were infected into five litres of High Five cells (Invitrogen) grown in High Five serum free medium (Invitrogen) to a cell density of approximately 1-2×10^6 cells/ml. Cells are infected with virus at a MOI of 0.8-3.0. Cells were harvested and lysed. JAK kinase domains were purified by affinity chromatography on a Probond (Invitrogen) nickel chelate affinity column.
(§2) Kinase assays were performed either in a 96 well capture-based ELISA assay or in 384 well Optiplates (Packard) using an Alphascreen Protein Tyrosine Kinase kit. In either case using approximately 15 μg of affinity purified PTK domain in the presence of 50 mM HEPES, pH 7.5, 10 mM MgCl2 150 mM NaCl and 10 μM-1 mM ATP. The biotinylated substrate biotin-EGPWLEEEEEAYGWMDF-NH2 (final concentration 5 μM) was used as substrate. In the ELISA assay tyrosine phosphorylation was quantitated following transfer to an avidin coated ELISA plate using peroxidase-linked anti-phospho-tyrosine antibody PY20. In the Alphascreen assay, Alphascreen phosphotyrosine acceptor beads followed by streptavidin donor beads were added under subdued light. The ELISA plates were read on a BMG Fluorostar, the Alphascreen plates were read on a Packard Fusion Alpha. Inhibitors were added to the assays fifteen minutes prior to the addition of ATP. Inhibitors were added in aqueous DMSO, with DMSO concentrations never exceeding 1%.

human JAK3 = target: T2, human JAK3 (Homo sapiens, UniProt P52333); assay: JAK kinase assay (ELISA or Alphascreen), Jak3; details: standard conditions, read-out: Jak3 inhibition of enzyme activity
T2 construct: The kinase domain of human JAK3 was amplified from U937mRNA; His tag (pFastBac HTb vector; nickel chelate purification) (N); made in house; host or cells: baculovirus; Sf9 for virus, High Five insect cells for production
Source text: The kinase domain of human JAK3 was amplified from U937mRNA using the polymerase chain reaction with the following primers: […]
JAK3 PCR products were cloned into the pFastBac HTb expression vector (Gibco) via the Xho I and Kpn I sites. The JAK3 plasmid was then transformed into competent DH10Bac cells (Gibco), and the recombinant baculovirus produced prepared for transfection into Sf9 insect cells.
as §1, §2

zap70 = target: T3, zap70 (Homo sapiens, UniProt P43403); assay: Kinase assay (ELISA or Alphascreen), zap70; details: standard conditions, read-out: zap70 inhibition of enzyme activity
T3 sequence (P43403 338-600 limits assumed): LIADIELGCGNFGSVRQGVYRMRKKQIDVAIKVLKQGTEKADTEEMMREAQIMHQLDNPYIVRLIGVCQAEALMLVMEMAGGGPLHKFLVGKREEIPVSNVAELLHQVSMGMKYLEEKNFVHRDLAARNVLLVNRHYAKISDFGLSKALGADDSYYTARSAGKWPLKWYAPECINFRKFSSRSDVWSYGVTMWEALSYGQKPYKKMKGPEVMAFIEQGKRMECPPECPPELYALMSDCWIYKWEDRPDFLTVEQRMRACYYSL
Procedure: as §2

kdr = kdr (Homo sapiens, UniProt P35968); assay: Kinase assay (ELISA or Alphascreen), kdr; details: standard conditions, read-out: kdr inhibition of enzyme activity
Procedure: as §2

abl = target: T4, abl (Homo sapiens, UniProt P00519); assay: Kinase assay (ELISA or Alphascreen), abl; details: standard conditions, read-out: abl inhibition of enzyme activity
T4 sequence (P00519 242-493 limits assumed): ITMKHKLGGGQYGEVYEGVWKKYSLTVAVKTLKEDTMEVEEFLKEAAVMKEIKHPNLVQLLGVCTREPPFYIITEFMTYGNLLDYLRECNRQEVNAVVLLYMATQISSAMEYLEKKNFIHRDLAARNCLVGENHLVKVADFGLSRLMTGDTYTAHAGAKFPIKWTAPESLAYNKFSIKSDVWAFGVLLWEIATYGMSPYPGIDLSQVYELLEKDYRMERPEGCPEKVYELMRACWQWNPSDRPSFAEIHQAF
Procedure: as §2

hck = hck (Homo sapiens, UniProt P08631); assay: Kinase assay (ELISA or Alphascreen), hck; details: standard conditions, read-out: hck inhibition of enzyme activity
Procedure: as §2

btk = btk (Homo sapiens, UniProt Q06187); assay: Kinase assay (ELISA or Alphascreen), btk; details: standard conditions, read-out: btk inhibition of enzyme activity
Procedure: as §2

tie2 = tie2 (Homo sapiens, UniProt Q02763); assay: Kinase assay (ELISA or Alphascreen), tie2; details: standard conditions, read-out: tie2 inhibition of enzyme activity
Procedure: as §2

fms = target: T5, fms (Homo sapiens, UniProt P07333); assay: Kinase assay (ELISA or Alphascreen), fms; details: standard conditions, read-out: fms inhibition of enzyme activity
T5 sequence (P07333 582-910 limits assumed): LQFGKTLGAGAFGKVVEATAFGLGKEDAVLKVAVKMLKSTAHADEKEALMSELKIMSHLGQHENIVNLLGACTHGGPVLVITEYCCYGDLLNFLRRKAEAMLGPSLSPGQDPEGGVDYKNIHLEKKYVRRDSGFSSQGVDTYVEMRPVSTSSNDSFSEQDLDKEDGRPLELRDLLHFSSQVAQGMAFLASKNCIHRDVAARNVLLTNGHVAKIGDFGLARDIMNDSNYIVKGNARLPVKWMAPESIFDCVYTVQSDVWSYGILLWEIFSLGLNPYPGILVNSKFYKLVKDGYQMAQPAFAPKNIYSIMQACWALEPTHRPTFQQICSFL
Procedure: as §2

tie2, sequence (Q02763 824-1096 limits assumed, species assumed): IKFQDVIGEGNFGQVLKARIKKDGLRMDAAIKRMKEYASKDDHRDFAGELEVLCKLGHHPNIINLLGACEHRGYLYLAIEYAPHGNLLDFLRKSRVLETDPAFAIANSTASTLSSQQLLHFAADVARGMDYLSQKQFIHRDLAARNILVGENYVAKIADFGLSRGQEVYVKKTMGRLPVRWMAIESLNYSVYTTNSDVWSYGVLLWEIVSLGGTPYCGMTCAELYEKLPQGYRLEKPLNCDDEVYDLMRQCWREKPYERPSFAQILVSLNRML
T1 sequence (O60674 849-1124 limits assumed): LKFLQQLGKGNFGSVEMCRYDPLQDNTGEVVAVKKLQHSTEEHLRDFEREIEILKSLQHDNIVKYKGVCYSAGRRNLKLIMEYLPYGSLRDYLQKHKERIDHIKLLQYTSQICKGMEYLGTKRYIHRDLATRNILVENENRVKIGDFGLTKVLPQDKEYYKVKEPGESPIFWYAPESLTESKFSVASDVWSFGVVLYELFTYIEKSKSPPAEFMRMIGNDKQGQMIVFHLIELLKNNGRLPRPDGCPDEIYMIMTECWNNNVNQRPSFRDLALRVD
kdr, sequence (P35968 834-1162 limits assumed, species assumed): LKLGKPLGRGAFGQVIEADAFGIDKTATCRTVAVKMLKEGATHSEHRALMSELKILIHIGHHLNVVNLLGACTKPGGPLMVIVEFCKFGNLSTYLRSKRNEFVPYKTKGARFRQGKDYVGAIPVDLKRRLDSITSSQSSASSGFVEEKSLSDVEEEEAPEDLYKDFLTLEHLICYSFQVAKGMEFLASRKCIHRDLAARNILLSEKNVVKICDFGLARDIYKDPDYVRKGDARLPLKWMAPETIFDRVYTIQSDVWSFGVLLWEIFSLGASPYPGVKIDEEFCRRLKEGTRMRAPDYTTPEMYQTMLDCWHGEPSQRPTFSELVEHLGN
hck, sequence (P08631 262-515 limits assumed, species assumed): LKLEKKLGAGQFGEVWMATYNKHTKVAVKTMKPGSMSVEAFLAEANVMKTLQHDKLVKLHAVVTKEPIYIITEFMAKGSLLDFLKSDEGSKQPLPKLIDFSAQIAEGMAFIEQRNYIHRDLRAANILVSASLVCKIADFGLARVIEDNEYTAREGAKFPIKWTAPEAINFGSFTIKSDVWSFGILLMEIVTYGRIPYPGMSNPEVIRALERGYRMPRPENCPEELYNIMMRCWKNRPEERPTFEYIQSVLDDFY
T2 sequence (P52333 822-1111 limits assumed): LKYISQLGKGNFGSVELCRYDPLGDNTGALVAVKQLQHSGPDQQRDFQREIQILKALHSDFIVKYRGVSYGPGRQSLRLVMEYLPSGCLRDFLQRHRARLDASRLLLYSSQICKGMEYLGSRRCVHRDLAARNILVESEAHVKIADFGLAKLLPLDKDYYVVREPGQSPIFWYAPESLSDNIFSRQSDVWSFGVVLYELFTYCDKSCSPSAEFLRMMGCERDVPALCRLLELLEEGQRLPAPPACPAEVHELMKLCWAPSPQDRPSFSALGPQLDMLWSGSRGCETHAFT
btk, sequence (Q06187 402-655 limits assumed, species assumed): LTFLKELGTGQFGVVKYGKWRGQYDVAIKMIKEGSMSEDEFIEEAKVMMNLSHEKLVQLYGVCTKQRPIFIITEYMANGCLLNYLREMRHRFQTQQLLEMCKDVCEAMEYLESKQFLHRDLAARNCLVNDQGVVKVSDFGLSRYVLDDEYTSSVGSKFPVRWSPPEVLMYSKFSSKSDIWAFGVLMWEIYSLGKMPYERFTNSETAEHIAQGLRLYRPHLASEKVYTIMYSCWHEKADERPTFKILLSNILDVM

| SMILES | inhibition at 20 µM (human JAK2) [%] | inhibition at 20 µM (human JAK3) [%] | inhibition at 20 µM (zap70) [%] | inhibition at 20 µM (kdr) [%] | inhibition at 20 µM (abl) [%] | inhibition at 20 µM (hck) [%] | inhibition at 20 µM (btk) [%] | inhibition at 20 µM (tie2) [%] | inhibition at 20 µM (fms) [%] |
| --- | --- | --- | --- | --- | --- | --- | --- | --- | --- |
| CO/C=C\N(C)CCCCNC(=O)c1ccc2ncn(-c3cncc(N[C@@H](C)c4ccccc4)n3)c2c1 | ≥ 50 | ≥ 50 | ≥ 50 | ≥ 50 |  |  |  |  |  |
| CC[C@H](Nc1cncc(-n2cnc3ccccc32)n1)c1ccccc1 | ≥ 50 | < 50 | ≥ 50 |  | ≥ 50 |  |  |  |  |
| C[C@H](Nc1cncc(-n2cnc3cc(NC(=O)N4CCN(C)CC4)ccc32)n1)c1ccccc1 | ≥ 50 | < 50 | ≥ 50 | ≥ 50 | ≥ 50 | ≥ 50 |  |  |  |
| C[C@H](Nc1cncc(-n2cnc3cc(NC(=O)c4ccc(CN5CCN(C)CC5)cc4)ccc32)n1)c1ccccc1 | < 50 | < 50 | ≥ 50 |  |  | ≥ 50 |  |  |  |
| COc1cc(-c2cncc(-n3cnc4ccccc43)n2)ccc1O | < 50 | < 50 |  |  | ≥ 50 |  |  |  |  |
| Nc1ccc(-c2cncc(-n3cnc4ccccc43)n2)cc1 | ≥ 50 | < 50 | ≥ 50 |  |  |  |  |  |  |
| C[C@H](Nc1cncc(-n2cnc3cc(C(=O)NCCCCN4CCOCC4)ccc32)n1)c1ccccc1 | ≥ 50 | < 50 | ≥ 50 |  | ≥ 50 |  |  |  |  |
| CC(Nc1cncc(N2CNc3cc(CN4CCN(C)CC4)ccc32)n1)c1ccc(F)cc1 (stereo not shown) | < 50 | < 50 |  | ≥ 50 |  |  |  |  |  |
| CCN(CC)Cc1ccc2c(c1)ncn2-c1cncc(NC(C)c2ccc(F)cc2)n1 (stereo not shown) | < 50 | < 50 |  | ≥ 50 |  |  |  |  |  |
| CC(Nc1cncc(-n2cnc3cc(CN(C)C)ccc32)n1)c1ccc(F)cc1 (stereo not shown) | < 50 | < 50 |  | ≥ 50 |  |  |  |  |  |
| CC(Nc1cncc(-n2cnc3cnccc32)n1)c1ccc(F)cc1 (stereo not shown) | ≥ 50 | < 50 |  | ≥ 50 |  |  |  |  |  |
| C[C@H](Nc1cncc(-n2cnc3ccc(CO)cc32)n1)c1ccc(F)cc1 | ≥ 50 | < 50 |  |  |  | ≥ 50 | ≥ 50 |  |  |
| C[C@H](Nc1cncc(-n2cnc3ccc(CN4CCNCC4)cc32)n1)c1ccc(F)cc1 | < 50 | ≥ 50 |  |  |  |  |  | ≥ 50 |  |
| C[C@H](Nc1cncc(-n2cnc3ccc(CN4CCOCC4)cc32)n1)c1ccc(F)cc1 | ≥ 50 | < 50 |  |  |  | ≥ 50 |  |  |  |
| C[C@H](Nc1cncc(-n2cnc3ccc(CN4CCCC4)cc32)n1)c1ccc(F)cc1 | ≥ 50 | < 50 |  |  |  |  |  | ≥ 50 |  |
| C[C@H](Nc1cncc(-n2cnc3ccc(CN(CCO)CCO)cc32)n1)c1ccc(F)cc1 | ≥ 50 | < 50 |  |  |  | ≥ 50 |  |  |  |
| N#Cc1ccc2ncn(-c3cncc(N[C@H]4CCc5ccccc54)n3)c2c1 | ≥ 50 | ≥ 50 |  |  |  |  |  | ≥ 50 |  |
| N#Cc1ccc2c(c1)ncn2-c1cncc(N[C@H]2CCc3ccccc32)n1 | ≥ 50 | ≥ 50 |  | ≥ 50 |  |  |  | ≥ 50 |  |

| SMILES | inhibition at 20 µM (human JAK2) [%] | inhibition at 20 µM (human JAK3) [%] | inhibition at 20 µM (zap70) [%] | inhibition at 20 µM (kdr) [%] | inhibition at 20 µM (abl) [%] | inhibition at 20 µM (hck) [%] | inhibition at 20 µM (btk) [%] | inhibition at 20 µM (tie2) [%] | inhibition at 20 µM (fms) [%] |
| --- | --- | --- | --- | --- | --- | --- | --- | --- | --- |
| CC(Nc1cncc(-n2cnc3cc(C#N)ccc32)n1)c1cccc2ccccc12 (stereo not shown) | < 50 | < 50 |  |  |  |  |  |  | ≥ 50 |
| C[C@H](Nc1cncc(-n2cnc3cc(-c4nn[nH]n4)ccc32)n1)c1ccc(F)cc1 | < 50 | < 50 | ≥ 50 |  |  |  |  |  |  |
| C[C@H](Nc1cncc(-n2cnc3ccccc32)n1)c1ccc(F)cc1 | ≥ 50 | ≥ 50 | ≥ 50 |  |  |  |  |  |  |
| CCNC(=O)Nc1ccc2c(c1)ncn2-c1cncc(N[C@@H](C)c2ccccc2)n1 | ≥ 50 | < 50 |  |  |  |  |  |  | ≥ 50 |
| CC(Nc1cncc(-n2cnc3ccc(C#N)cc32)n1)c1cccnc1 (stereo not shown) | < 50 | < 50 |  |  | ≥ 50 |  |  |  |  |
| CC(Nc1cncc(-n2cnc3cc(C#N)ccc32)n1)c1cccnc1 (stereo not shown) | ≥ 50 | ≥ 50 |  |  |  | ≥ 50 |  |  |  |
| CC(Nc1cncc(-n2cnc3ccc(C#N)cc32)n1)c1cccc(F)c1 (stereo not shown) | ≥ 50 | ≥ 50 |  |  |  | ≥ 50 |  |  |  |
| N#Cc1ccc2c(c1)ncn2-c1cncc(N[C@H]2CCCc3ccccc32)n1 | ≥ 50 | ≥ 50 |  |  |  |  |  |  | ≥ 50 |
| CC(Nc1cncc(-n2cnc3cc(C#N)ccc32)n1)c1ccccc1F (stereo not shown) | ≥ 50 | ≥ 50 |  |  |  |  |  |  | ≥ 50 |
| CC(Nc1cncc(-n2cnc3ccc(C#N)cc32)n1)c1cc(F)cc(F)c1 (stereo not shown) | ≥ 50 | ≥ 50 |  |  |  | ≥ 50 |  |  |  |
| CC(Nc1cncc(-n2cnc3cc(C#N)ccc32)n1)c1ccc(F)c(Cl)c1 (stereo not shown) | ≥ 50 | < 50 |  |  |  | ≥ 50 |  |  |  |
| CC[C@H](Nc1cncc(-n2cnc3cc(C#N)ccc32)n1)c1ccccc1 | ≥ 50 | ≥ 50 |  | ≥ 50 |  |  |  | ≥ 50 |  |
| Cc1ccc([C@H](C)Nc2cncc(-n3cnc4ccc(C#N)cc43)n2)cc1 | ≥ 50 | ≥ 50 | ≥ 50 |  |  |  |  |  |  |
| CC1CC(Nc2cncc(-n3cnc4cc(C#N)ccc43)n2)c2ccccc21 (stereo not shown) | ≥ 50 | ≥ 50 |  |  |  |  |  |  | ≥ 50 |
| COc1ccc2c(c1)CCC2Nc1cncc(-n2cnc3ccc(C#N)cc32)n1 (stereo not shown) | < 50 | < 50 |  |  |  | ≥ 50 |  |  |  |
| N#Cc1ccc2c(c1)ncn2-c1cncc(NC2CCc3cc(F)ccc32)n1 (stereo not shown) | ≥ 50 | ≥ 50 |  |  |  |  |  | ≥ 50 |  |
| Cc1ncc(-n2cnc3ccc(C#N)cc32)nc1N[C@@H](C)c1cccc(F)c1 | ≥ 50 | ≥ 50 |  |  |  |  |  | ≥ 50 |  |
